Laboratory results reported in US20240279278A1, “NMU RECEPTOR 2 AGONISTS” (Boehringer Ingelheim International GmbH, priority 2023, published 2024).
pEC50: −log10 of the molar value. Residues, ends and D or L forms follow the SMILES beside them.

What was measured:
Type in all cases: cell-based
[1] = target: T1, human NMUR2 receptor (Homo sapiens, UniProt Q9GZQ4); experiment: IP1 Gq HTRF assay, activation of human NMUR2 in buffer; design: expressed in transfected cells; host or cells: CHO-K1; details: CHO-K1 cells expressing human NMUR2, stimulation buffer with 0.1% BSA; read-out: EC50 (hNMUR2) buffer
In short: (§1)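 IP-One HTRF competition (665/620 nm ratio) read after 1 h agonist exposure at 37 °C in pH 7.4 HEPES/HBSS stimulation buffer containing 50 mM LiCl, 0.1% BSA, 1% DMSO. Cells: CHO-K1 stably expressing human NMUR2 or NMUR1. EC50 by 4-parameter nonlinear regression of 8-point curves.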

[2] = target: T2, human NMUR1 receptor (Homo sapiens, UniProt Q9HB89); experiment: IP1 Gq HTRF assay, activation of human NMUR1 in buffer; details: CHO-K1 cells expressing human NMUR1, stimulation buffer with 0.1% BSA; read-out: EC50 (hNMUR1) buffer
T2 construct: expressed in transfected cells; host or cells: CHO-K1
T2 sequence (Q9HB89 1-426): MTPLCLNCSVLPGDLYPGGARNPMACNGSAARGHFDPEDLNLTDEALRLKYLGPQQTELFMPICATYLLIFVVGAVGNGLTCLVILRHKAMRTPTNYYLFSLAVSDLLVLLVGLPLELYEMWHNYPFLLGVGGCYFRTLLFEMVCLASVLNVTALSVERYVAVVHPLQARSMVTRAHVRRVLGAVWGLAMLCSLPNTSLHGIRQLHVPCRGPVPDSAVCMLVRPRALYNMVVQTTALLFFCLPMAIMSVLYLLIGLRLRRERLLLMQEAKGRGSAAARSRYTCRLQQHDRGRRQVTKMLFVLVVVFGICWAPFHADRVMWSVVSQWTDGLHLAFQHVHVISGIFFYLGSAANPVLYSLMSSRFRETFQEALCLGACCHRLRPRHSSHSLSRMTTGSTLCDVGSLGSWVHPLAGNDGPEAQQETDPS
In short: as §1

[3] = target: T1, human NMUR2 receptor; experiment: IP1 Gq HTRF assay, activation of human NMUR2 in human plasma; design: expressed in transfected cells; host or cells: CHO-K1; details: CHO-K1 cells expressing human NMUR2, 100% human plasma; read-out: EC50 (hNMUR2) human plasma
In short: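 EC50 obtained via 4-parameter sigmoidal regression of HTRF IP-One signal (665 nm/620 nm), which falls as intracellular IP1 rises. Stimulation: 1 h, 37° C, peptides in human plasma plus 50 mM LiCl, 1% DMSO final, on NMUR2-expressing CHO-K1 cells, 8 concentrations.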

T1 sequence (Q9GZQ4 whole entry): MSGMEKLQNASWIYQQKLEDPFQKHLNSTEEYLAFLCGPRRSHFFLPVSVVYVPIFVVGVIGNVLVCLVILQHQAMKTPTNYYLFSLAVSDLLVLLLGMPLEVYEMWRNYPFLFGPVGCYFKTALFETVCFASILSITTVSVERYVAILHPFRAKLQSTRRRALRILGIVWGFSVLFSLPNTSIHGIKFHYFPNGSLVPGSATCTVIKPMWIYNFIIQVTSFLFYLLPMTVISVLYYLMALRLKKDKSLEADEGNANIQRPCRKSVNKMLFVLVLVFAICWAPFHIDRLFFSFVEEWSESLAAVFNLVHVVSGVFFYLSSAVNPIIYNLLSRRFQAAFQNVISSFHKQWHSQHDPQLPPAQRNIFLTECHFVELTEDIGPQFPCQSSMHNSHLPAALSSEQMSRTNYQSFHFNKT

Row | Structure (SMILES) | pEC50 [1] | pEC50 [2] | pEC50 [3]
1 | CCCC[C@H](NC(=O)[C@H](CC(C)C)N(C)C(=O)[C@H](Cc1ccccc1)NC(=O)[C@H](Cc1ccc(O)cc1)NC(=O)CN1CCN(CCNC(=O)CN(C)C(=O)CN(C)C(=O)CN(C)C(=O)CN(C)C(=O)CN(C)C(=O)CN(C)C(=O)CN(C)C(=O)CN(C)C(=O)CN(C)C(=O)CC[C@H](NC(=O)CC[C@H](NC(=O)CC[C@H](NC(=O)CCCCCCCCCCCCCCCCCCC(=O)O)C(=O)O)C(=O)O)C(=O)O)CC1)C(=O)N[C@@H](CCN)C(=O)N1CCC[C@H]1C(=O)N[C@@H](CCCNC(=N)N)C(=O)NCC(N)=O [Compound 60, C20DA-gGlu3-Sar9-AEPipAc-Tyr-Phe-NMeLeu-Nle-Dbu-Pro-Arg-Gly-NH2] (HELM PEPTIDE1{[O=C(O)CCCCCCCCCCCCCCCCCCC(=O)[*:2]].[gGlu].[gGlu].[gGlu].[Sar].[Sar].[Sar].[Sar].[Sar].[Sar].[Sar].[Sar].[Sar].[O=C(CN1CCN(CCN[*:1])CC1)[*:2]].Y.F.[meL].[Nle].[Dab].P.R.G.[am]}$$$$V2.0) | 8.40 | 6.27 | 7.86
2 | CCCC[C@H](NC(=O)[C@H](CC(C)C)N(C)C(=O)[C@H](Cc1ccccc1)NC(=O)[C@H](Cc1ccc(O)cc1)NC(=O)CN1CCN(CCNC(=O)CN(C)C(=O)CN(C)C(=O)CN(C)C(=O)CN(C)C(=O)CN(C)C(=O)CN(C)C(=O)CN(C)C(=O)CN(C)C(=O)CN(C)C(=O)CC[C@H](NC(=O)CC[C@H](NC(=O)CC[C@H](NC(=O)CCCCCCCCCCCCCCCCCCC(=O)O)C(=O)O)C(=O)O)C(=O)O)CC1)C(=O)N[C@@H](CCN)C(=O)N(C)[C@@H](C)C(=O)N[C@@H](CCCNC(=N)N)C(=O)NCC(N)=O [Compound 61, C20DA-gGlu3-Sar9-AEPipAc-Tyr-Phe-NMeLeu-Nle-Dbu-NMeAla-Arg-Gly-NH2] (HELM PEPTIDE1{[O=C(O)CCCCCCCCCCCCCCCCCCC(=O)[*:2]].[gGlu].[gGlu].[gGlu].[Sar].[Sar].[Sar].[Sar].[Sar].[Sar].[Sar].[Sar].[Sar].[O=C(CN1CCN(CCN[*:1])CC1)[*:2]].Y.F.[meL].[Nle].[Dab].[meA].R.G.[am]}$$$$V2.0) | 8.34 | < 6.00 | 7.85
3 | CCCC[C@H](NC(=O)[C@H](CC(C)C)N(C)C(=O)[C@H](Cc1ccccc1)NC(=O)[C@H](Cc1ccc(O)cc1)NC(=O)CN1CCN(CCNC(=O)CN(C)C(=O)CN(C)C(=O)CN(C)C(=O)CN(C)C(=O)CN(C)C(=O)CN(C)C(=O)CN(C)C(=O)CN(C)C(=O)CN(C)C(=O)CC[C@H](NC(=O)CC[C@H](NC(=O)CC[C@H](NC(=O)CCCCCCCCCCCCCCCCCCC(=O)O)C(=O)O)C(=O)O)C(=O)O)CC1)C(=O)N[C@@H](CCCNC(=N)N)C(=O)N(C)[C@@H](C)C(=O)N[C@@H](CCCNC(=N)N)C(=O)NCC(N)=O [Compound 62, C20DA-gGlu3-Sar9-AEPipAc-Tyr-Phe-NMeLeu-Nle-Arg-NMeAla-Arg-Gly-NH2] (HELM PEPTIDE1{[O=C(O)CCCCCCCCCCCCCCCCCCC(=O)[*:2]].[gGlu].[gGlu].[gGlu].[Sar].[Sar].[Sar].[Sar].[Sar].[Sar].[Sar].[Sar].[Sar].[O=C(CN1CCN(CCN[*:1])CC1)[*:2]].Y.F.[meL].[Nle].R.[meA].R.G.[am]}$$$$V2.0) | 8.51 | 6.36 | 7.85
4 | CCCC[C@H](NC(=O)[C@H](CC(C)C)N(C)C(=O)[C@H](Cc1ccccc1)NC(=O)[C@H](Cc1ccc(O)cc1)NC(=O)CN1CCN(CCNC(=O)CN(C)C(=O)CN(C)C(=O)CN(C)C(=O)CN(C)C(=O)CN(C)C(=O)CN(C)C(=O)CC[C@H](NC(=O)CC[C@H](NC(=O)CCCCCCCCCCCCCCCCC(=O)O)C(=O)O)C(=O)O)CC1)C(=O)N[C@@H](CCCNC(=N)N)C(=O)N1CCC[C@H]1C(=O)N[C@@H](CCCNC(=N)N)C(=O)NCC(N)=O [Compound 71, C18DA-gGlu2-Sar6-AEPipAc-Tyr-Phe-NMeLeu-Nle-Arg-Pro-Arg-Gly-NH2] (HELM PEPTIDE1{[O=C(O)CCCCCCCCCCCCCCCCC(=O)[*:2]].[gGlu].[gGlu].[Sar].[Sar].[Sar].[Sar].[Sar].[Sar].[O=C(CN1CCN(CCN[*:1])CC1)[*:2]].Y.F.[meL].[Nle].R.P.R.G.[am]}$$$$V2.0) | 8.82 | 6.89 | 7.84
5 | CCCC[C@H](NC(=O)[C@H](CC(C)C)N(C)C(=O)[C@H](Cc1ccccc1)NC(=O)[C@H](Cc1ccc(O)cc1)NC(=O)CN1CCN(CCNC(=O)CN(C)C(=O)CN(C)C(=O)CN(C)C(=O)CN(C)C(=O)CN(C)C(=O)CN(C)C(=O)CN(C)C(=O)CN(C)C(=O)CN(C)C(=O)CC[C@H](NC(=O)CC[C@H](NC(=O)CC[C@H](NC(=O)CCCCCCCCCCCCCCCCC(=O)O)C(=O)O)C(=O)O)C(=O)O)CC1)C(=O)N[C@@H](CCCNC(=N)N)C(=O)N(C)[C@@H](C)C(=O)N[C@@H](CCCNC(=N)N)C(=O)NCC(N)=O [Compound 73, C18DA-gGlu3-Sar9-AEPipAc-Tyr-Phe-NMeLeu-Nle-Arg-NMeAla-Arg-Gly-NH2] (HELM PEPTIDE1{[O=C(O)CCCCCCCCCCCCCCCCC(=O)[*:2]].[gGlu].[gGlu].[gGlu].[Sar].[Sar].[Sar].[Sar].[Sar].[Sar].[Sar].[Sar].[Sar].[O=C(CN1CCN(CCN[*:1])CC1)[*:2]].Y.F.[meL].[Nle].R.[meA].R.G.[am]}$$$$V2.0) | 8.72 | 6.27 | 7.81
6 | CCCC[C@H](NC(=O)[C@H](CC(C)C)N(C)C(=O)[C@H](Cc1ccccc1)NC(=O)[C@H](Cc1ccc(O)cc1)NC(=O)CN1CCN(C(=O)CN(C)C(=O)CN(C)C(=O)CN(C)C(=O)CN(C)C(=O)CN(C)C(=O)CN(C)C(=O)CN(C)C(=O)CN(C)C(=O)CN(C)C(=O)CN(C)C(=O)CN(C)C(=O)CN(C)C(=O)CN(C)C(=O)CN(C)C(=O)CN(C)C(=O)CC[C@H](NC(=O)CC[C@H](NC(=O)CC[C@H](NC(=O)CCCCCCCCCCCCCCCCC(=O)O)C(=O)O)C(=O)O)C(=O)O)CC1)C(=O)N[C@@H](CCCNC(=N)N)C(=O)N1CCC[C@H]1C(=O)N[C@@H](CCCNC(=N)N)C(=O)NCC(N)=O [Compound 75, C18DA-gGlu3-Sar15-PipAc-Tyr-Phe-NMeLeu-Nle-Arg-Pro-Arg-Gly-NH2] (HELM PEPTIDE1{[O=C(O)CCCCCCCCCCCCCCCCC(=O)[*:2]].[gGlu].[gGlu].[gGlu].[Sar].[Sar].[Sar].[Sar].[Sar].[Sar].[Sar].[Sar].[Sar].[Sar].[Sar].[Sar].[Sar].[Sar].[Sar].[O=C(CN1CCN([*:1])CC1)[*:2]].Y.F.[meL].[Nle].R.P.R.G.[am]}$$$$V2.0) | 9.15 | 6.89 | 8.46
7 | CCCC[C@H](NC(=O)[C@H](CC(C)C)N(C)C(=O)[C@H](Cc1ccccc1)NC(=O)[C@H](Cc1ccc(O)cc1)NC(=O)CN1CCN(C(=O)CN(C)C(=O)CN(C)C(=O)CN(C)C(=O)CN(C)C(=O)CN(C)C(=O)CN(C)C(=O)CN(C)C(=O)CN(C)C(=O)CN(C)C(=O)CN(C)C(=O)CN(C)C(=O)CN(C)C(=O)CN(C)C(=O)CN(C)C(=O)CN(C)C(=O)CC[C@H](NC(=O)CC[C@H](NC(=O)CC[C@H](NC(=O)CCCCCCCCCCCCCCCCC(=O)O)C(=O)O)C(=O)O)C(=O)O)CC1)C(=O)N[C@@H](CCN)C(=O)N1CCC[C@H]1C(=O)N[C@@H](CCCNC(=N)N)C(=O)NCC(N)=O [Compound 76, C18DA-gGlu3-Sar15-PipAc-Tyr-Phe-NMeLeu-Nle-Dbu-Pro-Arg-Gly-NH2] (HELM PEPTIDE1{[O=C(O)CCCCCCCCCCCCCCCCC(=O)[*:2]].[gGlu].[gGlu].[gGlu].[Sar].[Sar].[Sar].[Sar].[Sar].[Sar].[Sar].[Sar].[Sar].[Sar].[Sar].[Sar].[Sar].[Sar].[Sar].[O=C(CN1CCN([*:1])CC1)[*:2]].Y.F.[meL].[Nle].[Dab].P.R.G.[am]}$$$$V2.0) | 8.96 | 5.96 | 8.21
8 | CCCC[C@H](NC(=O)[C@H](CC(C)C)N(C)C(=O)[C@H](Cc1ccccc1)NC(=O)[C@H](Cc1ccc(O)cc1)NC(=O)CN1CCN(C(=O)CN(C)C(=O)CN(C)C(=O)CN(C)C(=O)CN(C)C(=O)CN(C)C(=O)CN(C)C(=O)CN(C)C(=O)CN(C)C(=O)CN(C)C(=O)CN(C)C(=O)CN(C)C(=O)CN(C)C(=O)CN(C)C(=O)CN(C)C(=O)CN(C)C(=O)CC[C@H](NC(=O)CC[C@H](NC(=O)CC[C@H](NC(=O)CCCCCCCCCCCCCCCCC(=O)O)C(=O)O)C(=O)O)C(=O)O)CC1)C(=O)N[C@@H](CCN)C(=O)N(C)[C@@H](C)C(=O)N[C@@H](CCCNC(=N)N)C(=O)NCC(N)=O [Compound 79, C18DA-gGlu3-Sar15-PipAc-Tyr-Phe-NMeLeu-Nle-Dbu-NMeAla-Arg-Gly-NH2] (HELM PEPTIDE1{[O=C(O)CCCCCCCCCCCCCCCCC(=O)[*:2]].[gGlu].[gGlu].[gGlu].[Sar].[Sar].[Sar].[Sar].[Sar].[Sar].[Sar].[Sar].[Sar].[Sar].[Sar].[Sar].[Sar].[Sar].[Sar].[O=C(CN1CCN([*:1])CC1)[*:2]].Y.F.[meL].[Nle].[Dab].[meA].R.G.[am]}$$$$V2.0) | 8.89 | < 6.00 | 8.15
